Laboratory results from patent publication US20190282496A1 (Bryn Pharma, LLC, priority 2018, published 2019).

Experiments:
[1] = system: histamine induced nasal congestion
[2] = dogs; concomitant intranasal administration of phentolamine; Bleske et al.; cited from earlier work

Structure (SMILES)	nasal congestion and flow restriction pressure ([1]; Group 1, 5 and 10 minutes post-histamine exposure)	histamine-induced nasal congestion ([1]; aerosolized 5% histamine, all animals)	histamine induced congestion without epinephrine administration ([1]; pilot study, 60, 80 and 100 minute time points)	epinephrine plasma levels following intranasal administration [2]
NCCc1c[nH]cn1 [Histamine]	progressive increase	induced congestion in all animals to varying degrees	remains elevated at significant levels	–
Cc1ccc(N(CC2=NCCN2)c2cccc(O)c2)cc1 [phentolamine]	–	–	–	enhanced
